The results in this text go back to paper PMC8927147, “Global profiling of regulatory elements in the histone benzoylation pathway” (Nature Communications, 2022).

For assay [1], the system named is BY4742 cells. Put plainly: Western blot of histone Kbz and Kac levels in yeast treated with sodium benzoate. The format is cell-based, Saccharomyces cerevisiae. Conditions: BY4742 cells in YPD at log phase, sodium benzoate added for 6 h, histones extracted; pan anti-Kbz and anti-Kac. The text has this: Anti-Kbz (PTM Biolabs Inc., PTM-762, 1:1000, Lot^# 1314381619I926), anti-Kac (Cell signal, 9441 S, 1:1000, Lot^# 14), anti-H3N (Active motif, 39763, 1:700, Lot^# 20418023), anti-H4 (Active motif, 61521, 1:3000, Lot^# 31416005), and anti-tubulin (Sigma, T6199, 1:3000, Lot^# 048M4751V) antibodies were used in this study. The HRP secondary antibody and the fluorescent secondary antibodies were used: Peroxidase AffiniPure Goat Anti-Mouse IgG (Jackson ImmunoResearch, 1:5000, 115-035-003), Peroxidase AffiniPure Goat Anti-Rabbit IgG (Jackson ImmunoResearch, 1:5000, 111-035-003), IRDye 800CW goat anti-rabbit IgG (LI-COR P/N 923-32211, 1:5000, Lot^# D00304-15) and IRDye 680RD goat anti-Mouse IgG (LI-COR P/N 926-68070, 1:10000, Lot^# D01014-04). The fluorescent western blots were detected on Odyssey CLx (LI-COR) and quantified by Image Studio (ver. 5.2.5).
Typically, 100 mg yeast cell pellets were harvested and suspended in 1 ml buffer A (1 M sorbitol, 50 mM Tris-HCl, pH 7.5, 5 mM MgCl2, 5 mM 2-mercaptoethanol) and centrifuged for 5 min at 900 g. Then, the pellet was resuspended in 1 ml buffer A with 60 μl zymolyase. […] The concentration of histones was measured by a BCA Protein Assay Kit (TIANGEN, PA115-01, China). The samples were analyzed by western blot or by mass spectrometry.
In general terms: Immunoblotting shows a protein as a band on a membrane.

In assay [2] the test system is Gcn5-Ada2. Put plainly: DTNB acylation activity assay of Gcn5-Ada2. The format is biochemical, Saccharomyces cerevisiae. Particulars: 250 μM H3 1-18 peptide, pH 7.8, 30 °C. The method, then: Kinetic measurements comparing rates of acetylation and benzoylation were performed using the 5,5′-dithiobis-(2-bitrobenzoic acid) (DTNB, D218200-1G, Sigma) assay. Reactions contained 2 μM Gcn5-Ada2, 250 μM H3 peptide amino acids 1-18 ([…]), 100 mM HEPES pH7.8, 50 mM NaCl and 500 μM acetyl-CoA or benzoyl-CoA. Each reaction was incubated for 5 min at 30 °C before adding acyl-CoA to start the reaction. The reaction was quenched at the indicated time points by adding two volumes of freshly prepared quenching buffer (3.2 M guanidine-HCl, 100 mM sodium phosphate pH 6.8). The samples were added to one volume of 4 mM DTNB dissolved in 100 mM sodium phosphate (pH 6.8) and transferred to a 384-well polystyrene clear-bottom plate (CORNING, 3680), and the absorbance at 412 nm was measured in a Bio-TEK plate reader. Absorbances were converted to concentrations using a standard curve generated by HSCOA standards. The acetylation reaction was quenched after 0.5, 1.0, 1.5, 2.0, and 2.5 min, and the benzoylation reaction was quenched after 1, 2, 3, and 4 h. All acylation rates were corrected by subtracting the rate of acyl-CoA consumption by Gcn5-Ada2 in the absence of peptide. The acetylation assays were performed in triplicate, but the benzoylation assay was not repeated due to the limitation of materials.

The target in assay [3] is T1, Sas5YEATS (Saccharomyces cerevisiae, UniProt Q99314).
T1 construct: 6*His-Sumo (N, cleaved yes); made in house; host or cells: Escherichia coli Rosetta
T1 sequence (Q99314 2-139): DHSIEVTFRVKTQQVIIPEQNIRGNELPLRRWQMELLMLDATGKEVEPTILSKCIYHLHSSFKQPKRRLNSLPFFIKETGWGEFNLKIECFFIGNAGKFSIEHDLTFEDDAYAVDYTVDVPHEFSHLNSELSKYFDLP
Put plainly: ITC binding of H3 peptides to Sas5YEATS.

The target in assay [4] is T2, Sth1BD (Saccharomyces cerevisiae, UniProt P32597).
T2 construct: Sth1BD (residues 1248-1359); 6*His-Sumo (N, cleaved yes); made in house; host or cells: Escherichia coli Rosetta
T2 sequence (P32597 1248-1359): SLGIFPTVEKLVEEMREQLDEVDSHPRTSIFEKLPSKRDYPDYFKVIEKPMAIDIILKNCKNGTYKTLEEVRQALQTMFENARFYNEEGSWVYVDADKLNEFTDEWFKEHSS
Kind of assay: ITC binding of H3 peptides to Sth1 bromodomain. The procedure:
(§1) ITC titrations were performed using a MicroCal ITC200 system (GE Healthcare, USA) at 20 °C. For ITC measurement, peptides and proteins were dialyzed into the same buffer (25 mM Tris-HCl, pH 8.0, 150 mM NaCl). […] For reader-related ITC experiments, peptides at 2.0 mM in the syringe were titrated into Taf14YEATS/Sas5YEATS/Sth1BD at 0.1–0.2 mM in the sample cell. Each titration consisted of 20 successive injections. The titration curves were processed using the Origin 7.0 software program (OriginLab) according to the one-binding-site fitting model. Each titration was repeated twice, and one representative plot was shown in the paper. The dissociation constants (Kd), enthalpy changes (ΔH), and fitting errors were derived from one representative ITC plot.

Assay [5] has as its target T3, Sth1BD A1329C (Saccharomyces cerevisiae, UniProt P32597, A1329C).
T3 construct: Sth1BD (residues 1248-1359); 6*His-Sumo (N, cleaved yes); made in house; host or cells: Escherichia coli Rosetta
T3 sequence (P32597 1248-1359 A1329C): T2 sequence (P32597 1248-1359) with A82C
Kind of assay: ITC binding of H3K14bz peptide to Sth1BD A1329C mutant. The method, then:
as §1

Changes are numbered by the printed parent chain. Peptide text beside a SMILES is read from it. * marks the point of attachment. Bz = O=C(c1ccccc1)*

Regarding `O=C([O-])c1ccccc1.[Na+]` [sodium benzoate], the “effect on histone Kbz and Kac signals (western blot)” value in assay [1] was “significantly enhanced the Kbz and Kac signals on yeast histones in a dose-dependent manner”.
`CC(=O)SCCNC(=O)CCNC(=O)[C@H](O)C(C)(C)COP(=O)(O)OP(=O)(O)OC[C@H]1O[C@@H](n2cnc3c(N)ncnc32)[C@H](O)[C@@H]1OP(=O)(O)O` [acetyl-CoA]: the acetylation rate in assay [2] (2 μM Gcn5-Ada2, 500 μM acetyl-CoA, n = 3) was 10.35 µM/min.
With `CC(C)C[C@H](NC(=O)[C@H](CCC(N)=O)NC(=O)[C@@H](N)CCCCN)C(=O)N[C@@H](C)C(=O)N[C@@H](CO)C(=O)N[C@@H](CCCCN)C(=O)N[C@@H](C)C(=O)N[C@@H](C)C(=O)N[C@@H](CCCNC(=N)N)C(=O)N[C@@H](CCCCNC(=O)c1ccccc1)C(=O)N[C@@H](CO)C(=O)N[C@@H](C)C(=O)N1CCC[C@H]1C(=O)N[C@@H](CO)C(=O)N[C@H](C(=O)NCC(=O)NCC(=O)N[C@H](C(=O)N[C@@H](CCCCN)C(=O)N[C@@H](Cc1ccc(O)cc1)C(=O)O)C(C)C)[C@@H](C)O` [H3K27bz] (H-KQLASKAARK(Bz)SAPSTGGVKY-OH), the Kd in assay [3] is 92.6 ± 5.63 µM; in assay [4], 386 µM.
`CC(C)(COP(=O)(O)OP(=O)(O)OC[C@H]1O[C@@H](n2cnc3c(N)ncnc32)[C@H](O)[C@@H]1OP(=O)(O)O)[C@@H](O)C(=O)NCCC(=O)NCCSC(=O)c1ccccc1` [benzoyl-CoA] returned a benzoylation rate in assay [2] (2 μM Gcn5-Ada2, 500 μM benzoyl-CoA, single experiment) of 1.19 µM/h.
Turning to `CC(C)C[C@H](NC(=O)[C@H](CCC(N)=O)NC(=O)[C@H](CCCCN)NC(=O)[C@H](CCCNC(=N)N)NC(=O)[C@@H]1CCCN1C(=O)[C@H](C)NC(=O)[C@H](CCCCNC(=O)c1ccccc1)NC(=O)CNC(=O)CNC(=O)[C@@H](NC(=O)[C@H](CO)NC(=O)[C@H](CCCCN)NC(=O)[C@H](CCCNC(=N)N)NC(=O)[C@H](C)NC(=O)[C@@H](N)[C@@H](C)O)[C@@H](C)O)C(=O)N[C@@H](C)C(=O)N[C@@H](CO)C(=O)N[C@@H](Cc1ccc(O)cc1)C(=O)O` [H3K14bz] (H-TARKSTGGK(Bz)APRKQLASY-OH), the dissociation constant Kd in assay [5] turned out to be 187 ± 29.8 µM; in assay [4], 88.5 ± 12.4 µM.

One may read the Kd as the constant that tells how readily two partners part at equilibrium.
